System: mice
Experiment: body temperature of mice after intravenous injection of peptides (hypothermia as reporter for crossing the BBB)
Type: in vivo
Settings: 2.5 mmol/kg intravenously; for hypothermia (variation in body temperature): monitored over 90 minutes
Method: Body temperature was monitored using Anipill® capsules previously implanted intraperitoneally.
The monitoring was carried out over 90 minutes.

Substance | time following injection at which hypothermia was observed [min] | hypothermia (variation in body temperature)
TAT-NT: reference cell penetration peptide TAT fused to neurotensin, GRKKRRQRRRPQRRPYIL (SEQ ID NO: 8), positive control [reference compound] | 30 | approximately 1 degree Celsius
TB peptide: cell penetrating peptide of amino acid sequence RQRIWFQNRRRSRKIKK (SEQ ID NO: 1) |  | no signs of hypothermia
TB-NT: TB peptide fused to neurotensin, sequence RQRIWFQNRRRSRKIKKRRPYIL (SEQ ID NO: 7) | 35 | approximately 3 degree Celsius

From patent publication US12466854B2, “Peptide useful for the transport of molecules through cell barriers” (UNIVERSITÉ GRENOBLE ALPES, priority 2022, dated 2025)
